Assay [1] concerns T-47D. In words: Caspase cascade activation in T-47D cells (N-(Ac-DEVD)-N'-ethoxycarbonyl-R110 fluorogenic substrate). The conditions noted are these: T-47D human breast cancer cells, 24 h incubation; for T-47D Ratio (caspase activity): ratio of net RFU of test compound to control. The assay is classed as cell-based. On the procedure: (§1) Human breast cancer cell lines T47D and ZR-75-1 were grown according to media component mixtures designated by American Type Culture Collection+10% FCS (Invitrogen Corporation), in approximately 5% CO2-95% humidity incubator at approximately 37° C. T-47D and ZR-75-1 cells were maintained at a cell density between 30 and 80% confluency at a cell density of 0.1 to 0.6×10^6 cells/mL. Cells were harvested at approximately 600×g and resuspended at approximately 0.65×10^6 cells/mL into appropriate media plus approximately 10% FCS. An aliquot of approximately 45 μl of cells was added to a well of a 96-well microtiter plate containing approximately 5 μl of a solution of approximately 10% DMSO in RPMI-1640 media solution containing approximately 0.16 to 10 μM of the test compounds (0.016 to 1 μM final). An aliquot of approximately 45 μl of cells was added to a well of a 96-well microtiter plate containing approximately 5 μl of a solution of approximately 10% DMSO in RPMI-1640 media solution without test compound as the control sample. The samples were mixed by agitation and then incubated at approximately 37° C. for approximately 24 h in approximately 5% CO2-95% humidity incubator. After incubation, the samples were removed from the incubator and approximately 50 μl of a solution containing approximately 20 μM of N-(Ac-DEVD)-N′-ethoxycarbonyl-R110 fluorogenic substrate, SEQ ID NO:1 (Cytovia, Inc.; U.S. Pat. No. 6,335,429), comprising approximately 20% sucrose (Sigma), 20 mM DTT (Sigma), 200 mM NaCl (Sigma), 40 mM Na PIPES buffer at approximate pH 7.2 (Sigma), and approximately 500 μg/ml lysolecithin (Calbiochem) was added. The samples were mixed by agitation and incubated at room temperature. Using a fluorescent plate reader (Model 1420 Wallac Instruments), an initial reading (T=0) was made approximately 1-2 min after addition of the substrate solution, employing excitation at 485 nm and emission at […], to determine the background fluorescence of the control sample. After the 3 h incubation, the samples were read for fluorescence as above (T=3 h).
(§2) The Relative Fluorescence Unit values (RFU) were used to calculate the sample readings as follows: RFU(T=3h)−Control RFU(T=0)=Net RFU(T=3h)
(§3) The activity of caspase cascade activation was determined by the ratio of the net RFU value for the test compounds to that of control samples. The EC50 (nM) was determined by a sigmoidal dose-response calculation (Prism 2.0, GraphPad Software Inc.).

For assay [2], the system named is ZR-75-1. In words: Caspase cascade activation in ZR-75-1 cells (N-(Ac-DEVD)-N'-ethoxycarbonyl-R110 fluorogenic substrate). The assay is classed as cell-based. The conditions noted are these: ZR-75-1 human breast cancer cells, 24 h incubation; for ZR-75-1 Ratio (caspase activity): ratio of net RFU of test compound to control; for EC50: sigmoidal dose-response. As for the experimental part: as §1, §2, §3

Usually EC50 stands for the concentration giving half of the maximal effect. A higher EC50 goes with a need for much substance. For “2-Amino-3-cyano-4-(3-bromo-4,5-dimethoxyphenyl)-4H-triazo[4,5-h]chromene [Example 1]”, the “T-47D Ratio (caspase activity)” value in assay [1] was 1.8. The EC50 in assay [1] (sigmoidal dose-response) was more than 1000 nM. In assay [2], the “ZR-75-1 Ratio (caspase activity)” value is given as 5.3 and a half-maximal effect (EC50) was put at 560 nM.

Turning to `COc1cc(C2C(C#N)=C(N)Oc3c2ccc2oc(=O)[nH]c32)cc(Br)c1OC` (centres unmarked) [Example 2, 2-Amino-3-cyano-4-(3-bromo-4,5-dimethoxyphenyl)-8-oxo-4,8,9-trihydro-oxazo[5,4-h]chromene], the “T-47D Ratio (caspase activity)” value in assay [1] worked out at 6.4. This molecule displayed a half-maximal effective concentration (EC50) in assay [1] (sigmoidal dose-response) of 567 nM. In assay [2], the “ZR-75-1 Ratio (caspase activity)” value stood at 8.5 and the response was half-maximal at 366 nM (EC50).

With `COc1cc(C2C(C#N)=C(N)Oc3c2ccc2oc(=O)n(C)c32)cc(Br)c1OC` (centres unmarked) [Example 3, 2-Amino-3-cyano-4-(3-bromo-4,5-dimethoxyphenyl)-8-oxo-4,8-dihydro-9-methyl-oxazo[5,4-h]chromene], the “T-47D Ratio (caspase activity)” value in assay [1] turned out to be 1.5. For the same molecule, in assay [1] (sigmoidal dose-response), the “T-47D EC50 (nM)” value is reported as “Inactive”. The “ZR-75-1 Ratio (caspase activity)” value in assay [2] is on record as 2.7.

On to `COC=NC1=C(C#N)C(c2cc(Br)c(OC)c(OC)c2)c2ccc3ocnc3c2O1` (centres unmarked) [Example 4, 2-Methoxymethylimine-3-cyano-4-(3-bromo-4,5-dimethoxyphenyl)-4H-oxazo[5,4-h]chromene], for which the “T-47D Ratio (caspase activity)” value in assay [1] is 8.1. This molecule also showed an EC50 in assay [1] (sigmoidal dose-response) of 47.2 nM. In addition, in assay [2], the “ZR-75-1 Ratio (caspase activity)” value is reported as 7.9 and the EC50 was 23 nM.

As for `COc1cc(C2C(C#N)=C(N)Oc3c2ccc2[nH]c(=O)oc32)cc(Br)c1OC` (centres unmarked) [Example 5, 2-Amino-3-cyano-4-(3-bromo-4,5-dimethoxyphenyl)-8-oxo-4,7,8-trihydro-oxazo[4,5-h]chromene], the “T-47D Ratio (caspase activity)” value in assay [1] is recorded as 8.6. The concentration for a half-maximal effect (EC50) in assay [1] (sigmoidal dose-response) came out at 285 nM. Besides, in assay [2], the “ZR-75-1 Ratio (caspase activity)” value was 4.5 and the concentration giving a half-maximal response (EC50) is 156 nM.

On to `COc1cc(C2C(C#N)=C(N)Oc3c2ccc2c3oc(=O)n2C)cc(Br)c1OC` (centres unmarked) [Example 6, 2-Amino-3-cyano-4-(3-bromo-4,5-dimethoxyphenyl)-8-oxo-4,8-dihydro-7-methyl-oxazo[4,5-h]chromene], for which the “T-47D Ratio (caspase activity)” value in assay [1] worked out at 6.5. This molecule also came in with a half-maximal effective concentration (EC50) in assay [1] (sigmoidal dose-response) of 11.8 nM.

For the molecule `COc1cc(C2C(C#N)=C(N)Oc3c2ccc2ncoc32)cc(Br)c1OC` (centres unmarked) [Example 7, 2-Amino-3-cyano-4-(3-bromo-4,5-dimethoxyphenyl)-4H-oxazo[4,5-h]chromene], the “T-47D Ratio (caspase activity)” value in assay [1] is 7.8. The figures for the EC50 in assay [1] (sigmoidal dose-response) and in assay [2] were 68.7 nM and 43 nM, respectively. In addition, the “ZR-75-1 Ratio (caspase activity)” value in assay [2] came to 9.8.

For `COc1cc(C2C(C#N)=C(N)Oc3c2ccc2ocnc32)cc(Br)c1OC` (centres unmarked) [Example 8, 2-Amino-3-cyano-4-(3-bromo-4,5-dimethoxyphenyl)-4H-oxazo[5,4-h]chromene], the “T-47D Ratio (caspase activity)” value in assay [1] is 7.9. In assay [1] (sigmoidal dose-response), this molecule displayed an EC50 of 35.1 nM. Besides, in assay [2], the “ZR-75-1 Ratio (caspase activity)” value worked out at 7.2 and the response was half-maximal at 12.9 nM (EC50).

For the origin of these results see patent US6858607B1, “7,8-fused 4H-chromene and analogs as activators of caspases and inducers of apoptosis and the use thereof” (Cytovia, Inc., priority 2001, dated 2005).
